Data as given in patent publication US8252931B2, “Thiazolo[5,4-B]pyridine glucokinase activators” (Novartis AG, priority 2005, dated 2012).
Read-outs that look alike come from different tables or passages of the source.

Tests used:
recombinant GST-GK = molecular target: T1, recombinant GST-GK (Homo sapiens, UniProt P35557); assay: activation of recombinant GST-GK in vitro (primary enzyme assay); format: biochemical; conditions: concentration of compound that produces a 50% increase in the activity of GK
T1 sequence (P35557 1-465): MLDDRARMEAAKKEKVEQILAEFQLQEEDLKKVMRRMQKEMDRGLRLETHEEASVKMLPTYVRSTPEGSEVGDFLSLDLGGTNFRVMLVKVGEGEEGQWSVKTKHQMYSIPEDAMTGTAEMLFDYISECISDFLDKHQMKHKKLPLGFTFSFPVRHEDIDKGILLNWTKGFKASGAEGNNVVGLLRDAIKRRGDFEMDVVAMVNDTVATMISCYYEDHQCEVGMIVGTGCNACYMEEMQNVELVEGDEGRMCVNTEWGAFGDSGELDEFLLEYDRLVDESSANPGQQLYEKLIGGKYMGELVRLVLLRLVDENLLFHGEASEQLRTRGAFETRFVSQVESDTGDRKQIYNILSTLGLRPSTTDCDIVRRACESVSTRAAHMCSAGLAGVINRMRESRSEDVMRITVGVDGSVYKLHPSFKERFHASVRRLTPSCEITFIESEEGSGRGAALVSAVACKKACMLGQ
Source text: For example, the glucokinase activation in vitro may be determined by measuring the activation of recombinant GST-GK by a compound of the present invention in the absence or the presence of GKRP, a 68,000 Da protein inhibitor of GK. In these assays, formation of glucose-6-phosphate is coupled directly to the formation of thio-NADH. GST-GK catalyzes the reaction of glucose and Mg-ATP to produce glucose-6-phosphate and ADP. Glucose-6-phosphate dehydrogenase (G6PDH) reduces thionicotinamide (thio-NAD) to thio-NADH. The assay measures the formation of thio-NADH at […].
The basic GK assay components are as follows: 25 mM HEPES (pH 7.1), 25 mM KCl, 2.5 mM MgCl2, 1 mM ATP (Sigma A-5394), 1 mM DTT, 1 mM thio-NAD (Sigma T-7375), 80 units/mL G6PDH (Sigma G-5885), 10 mM glucose and 110 nM GST-GK. For assessing reversal of GK inhibition by GKRP, 20 μM Fructose-6-phosphate (F-6-P) and 370 nM recombinant GKRP are added to these assay components. Fructose-1-phosphate (F-1-P) at 1 μM is used as a control in the GK/GKRP assay. F-1-P reverses inhibition of GST-GK by GKRP.
The assay is done in standard, 96-well, round-bottom plates (Corning) and the total assay volume is 25 μL. Test compounds are serially diluted into 100% DMSO and 0.5 μL of diluted compound in 100% DMSO is added to the assay plate. Assay reagents (24.5 μL) are added using a Zymark robotic platform. Buffer, containing HEPES, MgCl2, KCl, thio-NAD, G6PDH, glucose and GST-GK, are added (5 μL) using the Zymark 8-channel hand pipet. For the GK/GKRP assay, GKRP and F-6-P are also included. The reaction is then initiated by adding 19.5 μL of buffer containing HEPES, MgCl2, KCl, DTT and ATP using the Zymark Reagent Addition Station/Reagent Addition Module. The plates are read kinetically over 10 min at 25° C. using a SpectraMax Plus microplate spectrophotometer (Molecular Devices, Sunnyvale, Calif.) to monitor the increase in optical density at 405 nm. The GK activity in wells containing test compounds is compared with activity in DMSO control wells. The concentration of compound that produces a 50% increase in the activity of GK is calculated and expressed as EC50.

DIO mice = assay: glucokinase activation in vivo: oral glucose tolerance test in DIO mice; conditions: oral (po) dosing; different timepoints during the oral glucose tolerance test; statistically significant
Source text: The glucokinase activation in vivo may be determined as follows:
Male C57BL mice (Jackson Lab, Bar Harbor, Me.) are housed 2 per cage in a reversed light cycle room (light on from 8:00 p.m. to 8:00 a.m.) and given access to food and water ad libitum. To induce DIO, the mice are given a high fat diet (D12492 with 60% caloric intake from fat, Research Diets, New Brunswick, N.J.) from 4 weeks of age and maintained on the diet before being used. The DIO mice are used at 25 weeks of age. On the day of the study, animals are fasted at 7:30 a.m. Body weight measurement and basal blood sample collection are conducted at 10:00 a.m. Plasma glucose values are then determined. Animals are assigned into five groups (n=7/group) with the means of plasma glucose matched among the groups. At 10:30 a.m. animals are dosed with vehicle (water) or compound in vehicle with a dose volume of 5 ml/kg. The test compound is given at 3, 10, 30, or 100 mg/kg. One hour after vehicle or compound dosing, a blood sample (at 0 min) is taken followed by an oral glucose tolerance test (OGTT) at 1 g/kg (20% glucose in water) and a dose volume of 5 ml/kg. […] Plasma glucose concentrations are determined using a glucose meter (Ascensia Elite, Bayer Corp., Mishawaka, Ind.). […] Plasma insulin levels are determined by Luminex assay using Mouse Endocrine Lincoplex kit (Linco Research, Inc., St. Charles, Mo.). […]

[1] = read-out: EC50 in primary enzyme assay

| EC50 (recombinant GST-GK; [1]) [nM] | EC50 (recombinant GST-GK; read-out: EC50 in the in vitro assay measuring the activation of recombinant GST-GK) [nM] | Structure (SMILES) | reductions in glucose (DIO mice) |
| --- | --- | --- | --- |
| 6000 |  | COCCNC(=O)c1ccc2nc(NC(=O)[C@@H](CC3CCCC3)c3ccc(S(=O)(=O)N(CCOC)CCC(=O)O)cc3)sc2n1 [Example 4-60, 3-[(4-{(S)-2-Cyclopentyl-1-[5-(2-methoxy-ethylcarbamoyl)-thiazolo[5,4-b]pyridin-2-ylcarbamoyl]-ethyl}-benzenesulfonyl)-(2-methoxy-ethyl)-amino]-propionic acid] |  |
| 270 | ~271 | COc1ccc2nc(NC(=O)[C@H](CC3CCCC3)c3ccc(S(=O)(=O)N(CCC(=O)O)Cc4ccccc4)cc3)sc2n1 [Example 1, 3-(Benzyl-{4-[(R)-2-cyclopentyl-1-(5-methoxy-thiazolo[5,4-b]pyridin-2-ylcarbamoyl)-ethyl]-benzenesulfonyl}-amino)-propionic acid] | 38-53% |
| 1200 |  | COCCN(CCC(=O)O)S(=O)(=O)c1ccc(C(CC2CCCC2)C(=O)Nc2nc3cccnc3s2)cc1 (stereo not drawn) [Example 4-41, 3-[{4-[2-Cyclopentyl-1-(thiazolo[5,4-b]pyridin-2-ylcarbamoyl)-ethyl]-benzenesulfonyl}-(2-methoxy-ethyl)-amino]-propionic acid] |  |
| 220 |  | COCCOc1ccc2nc(NC(=O)[C@H](CC3CCCC3)c3ccc(S(=O)(=O)N(CCOC)CCC(=O)O)cc3)sc2n1 [Example 4-46, 3-[(4-{(R)-2-Cyclopentyl-1-[5-(2-methoxy-ethoxy)-thiazolo[5,4-b]pyridin-2-ylcarbamoyl]-ethyl}-benzenesulfonyl)-(2-methoxy-ethyl)-amino]-propionic acid] |  |
| 920 |  | COc1ccc(CN(CCC(=O)O)S(=O)(=O)c2ccc([C@@H](CC3CCCC3)C(=O)Nc3nc4ccc(OC)nc4s3)cc2)cc1 [Example 4-21, 3-[{4-[(R)-2-Cyclopentyl-1-(5-methoxy-thiazolo[5,4-b]pyridin-2-ylcarbamoyl)-ethyl]-benzenesulfonyl}-(4-methoxy-benzyl)-amino]-propionic acid] |  |
| 44000 |  | COCCN(CCC(=O)O)S(=O)(=O)c1ccc([C@H](CC2CCCC2)C(=O)Nc2nc3ccc(Cl)nc3s2)cc1 [Example 4-51, 3-[{4-[(S)-1-(5-Chloro-thiazolo[5,4-b]pyridin-2-ylcarbamoyl)-2-cyclopentyl-ethyl]-benzenesulfonyl}-(2-methoxy-ethyl)-amino]-propionic acid] |  |
| 230 |  | COCCN(CCC(=O)O)S(=O)(=O)c1ccc([C@@H](CC2CCCC2)C(=O)Nc2nc3ccc(SC)nc3s2)cc1 [Example 4-42, 3-[{4-[(R)-2-Cyclopentyl-1-(5-methylsulfanyl-thiazolo[5,4-b]pyridin-2-ylcarbamoyl)-ethyl]-benzenesulfonyl}-(2-methoxy-ethyl)-amino]-propionic acid] |  |
| 50000 |  | COCCN(CCC(=O)O)S(=O)(=O)c1ccc(C(CC2CCCC2)C(=O)Nc2nncs2)cc1 (stereo not drawn) [Example 2, 3-[{4-[2-Cyclopentyl-1-([1,3,4]thiadiazol-2-ylcarbamoyl)-ethyl]-benzene-sulfonyl}-(2-methoxy-ethyl)-amino]-propionic acid] |  |
| 220 |  | COc1ccc2nc(NC(=O)[C@H](CC3CCCC3)c3ccc(S(=O)(=O)N(CCC(=O)O)Cc4cc5ccccc5o4)cc3)sc2n1 [Example 3, 3-(Benzofuran-2-ylmethyl-{4-[(R)-2-cyclopentyl-1-(5-methoxy-thiazolo[5,4-b]pyridin-2-ylcarbamoyl)-ethyl]-benzenesulfonyl}-amino)-propionic acid] |  |
| 2400 |  | COc1ccc2nc(NC(=O)C(CC3CCCC3)c3ccc(S(=O)(=O)N(CC(=O)O)Cc4ccco4)cc3)sc2n1 (stereo not drawn) [Example 4-9, ({4-[2-Cyclopentyl-1-(5-methoxy-thiazolo[5,4-b]pyridin-2-ylcarbamoyl)-ethyl]-benzenesulfonyl}-furan-2-ylmethyl-amino)-acetic acid] |  |
